Measurements reported in article PMC4767442 (Oncotarget, 2015).

Columns and labels:
[1] = test system: oxyhemoglobin in red blood cells; parameters: method as in PMID 22508546; settings: cited from earlier work
[2] = test system: MCF-7 cells; assay: 59Fe mobilization from cells prelabeled with 59Fe-transferrin; format: cell-based, human; settings: MCF-7 prelabeled with 59Fe-transferrin, compounds 25 μmol·L^−1, 3 h/37°C
Procedure: Iron chelation efficiency of the compounds at a concentration of 10 μmol·L^−1 was determined via 3 methods: (1) the calcein assay; (2) the ability of the ligands to induce ^59Fe mobilization from cells prelabeled with ^59Fe-transferrin; and (3) the efficacy of these agents to inhibit the uptake of ^59Fe from ^59Fe-transferrin [22, 38–40].
The fluorimetric calcein-AM assay was performed by established methods, as described previously. The Fe chelation efficiency of the metabolites in cells was expressed as a percentage of that of the parent chelator, Dp44mT or DpC (100%). For studies assessing the ability of these agents to induce ^59Fe mobilization and inhibit ^59Fe uptake from ^59Fe-transferrin by cells, human transferrin (Sigma-Aldrich, Germany) was labeled with ^59Fe (PerkinElmer, MA, USA) to generate ^59Fe-transferrin at a final specific activity of 500 pCi/pmol Fe, as previously described. The unbound ^59Fe was removed by exhaustive vacuum dialysis against a large excess of 0.15 M NaCl buffered to pH 7.4 with 1.4% NaHCO3 by standard methods.
To examine the ability of the studied substances to mobilize ^59Fe from MCF-7 cells or inhibit ^59Fe uptake from ^59Fe-transferrin, established techniques were utilized. For ^59Fe mobilization studies, cells were preincubated with ^59Fe-transferrin (0.75 μmol·L^−1) for 3 h/37°C, washed 4 times at 4°C on ice, and then reincubated with control medium or control medium containing the compounds (25 μmol·L^−1) for 3 h/37°C. The release of ^59Fe from the cells into the overlying medium was then examined by collecting both the cells and overlying medium and assessing ^59Fe levels using a γ-counter. For studies examining the ability of the agents to inhibit ^59Fe uptake from ^59Fe-transferrin, cells were incubated for 3 h/37°C with ^59Fe-transferrin (0.75 μmol·L^−1) in the presence or absence of the agents (25 μmol·L^−1), and then washed 4 times at 4°C on ice. The internalization of ^59Fe by cells was then assessed by incubation for 30 min/4°C with the general protease, Pronase (1 mg/mL), utilizing standard techniques. The amount of internalized ^59Fe in the presence of the agents was expressed as a percentage of ^59Fe internalized by control cells incubated in the presence of control media alone.

[3] = parameters: method as in PMID 21658021; settings: cited from earlier work

Compound	oxidation of oxyhemoglobin to methemoglobin [1]	59Fe mobilization, % of cellular 59Fe [2] [%]	toxicity after oral administration [3]
CN(C(=S)NN=C(c1ccccn1)c1ccccn1)C1CCCCC1 [DpC, di(2-pyridyl)ketone 4-cyclohexyl-4-methyl-3-thiosemicarbazone]	does not induce oxidation of oxyhemoglobin to methemoglobin	44	
CN(C)C(=S)NN=C(c1ccccn1)c1ccccn1 [Dp44mT, di(2-pyridyl)ketone 4,4-dimethyl-3-thiosemicarbazone]		51	toxic after oral administration
